In US20080234233A1, “MEDICAMENT FOR TREATMENT OF NEURODEGENERATIVE DISEASES” (INSTITUTE OF MEDICINAL MOLECULAR DESIGN INC., priority 2002, published 2008):

Tested on: NF-κ B activation
Experiment: Inhibitory activity of NF-κB activation, luciferase reporter assay under TNF-α stimulation in HepG2
Type: cell-based, human
Conditions: HepG2, TNF-α 40 ng/ml, 4 hours; for inhibition at 10 µg/mL / inhibition at 1 µg/mL: Homo sapiens, read-out: Inhibitory rate against NF-κB activation (%)
Method: Measurement of Inhibitory Activity of NF-κB activation
Using a transfection reagent (Effectene; QIAGEN), the human hepatoma cell strain HepG2 was transfected with a plasmid (pNF κ B-Luc Reporter Plasmid; […]) integrated with an oligonucleotide having five tandem copies of NF-κ B binding sequences([…]) on a upstream region of firefly luciferase gene(Luc) according to the QIAGEN's protocol, and the cells were incubated for 6 to 24 hours. After addition of TNF-α (40 ng/ml) in the presence or absence of a test compound, the cells were incubated for 4 hours, and intracellular luciferase activity was measured by using PicaGene LT (TOYO INK MFG Co., Ltd.) and a chemical luminescence measurement apparatus ([…]luor Plus; TECAN). The inhibitory ratio was measured as a ratio relative to the value of the luciferase activity in the absence of the test compound.

Inhibitory rate against NF-κB activation (%) (Drug concentration at 1 μg/mL)	Inhibitory rate against NF-κB activation (%) (Drug concentration at 10 μg/mL)	SMILES	inhibition at 10 µg/mL (Drug concentration at 10 μg/mL) [%]	inhibition at 1 µg/mL (Drug concentration at 1 μg/mL) [%]
96.3	99.5	COc1ccc(Oc2ccc(C(F)(F)F)cc2NC(=O)c2cc(Cl)ccc2O)cc1 [compound 253]	–	–
91.0	99.4	COc1ccc(C(C)(C)C)cc1NC(=O)c1cc(Cl)ccc1OC(C)=O [compound 136]	–	–
–	69.7	Cc1cnc(NC(=O)c2cc(Br)ccc2O)s1 [compound 190]	–	–
–	72.1	O=C(O)Cc1sc(NC(=O)c2cc(Br)ccc2O)nc1-c1ccccc1 [compound 210]	–	–
83.6	94.4	Cc1sc(NC(=O)c2cc(Br)ccc2O)nc1-c1ccccc1 [compound 192]	–	–
–	–	Cc1nc(NC(=O)c2cc(Br)ccc2O)sc1-c1ccc(F)cc1 [compound 193, 5-Bromo-N-[4-methyl-5-(4-fluorophenyl)thiazol-2-yl]-2-hydroxybenzamide]	82	–
90.6	98.1	COc1ccc(Oc2ccccc2)cc1NC(=O)c1cc(Cl)ccc1O [compound 171]	–	–
–	–	N#Cc1ccc(O)c(C(=O)Nc2cc(C(F)(F)F)cc(C(F)(F)F)c2)c1 [compound 9, N-[3,5-Bis(trifluoromethyl)phenyl]-5-cyano-2-hydroxybenzamide]	99.6	92.2
–	–	CN(C)C(=O)c1ccc(O)c(C(=O)Nc2cc(C(F)(F)F)cc(C(F)(F)F)c2)c1 [compound 38, N^3-[3,5-bis(trifluoromethyl)phenyl]-4-hydroxy-N^1,N^1-dimethylisophthalamide]	87.1	16
92.5	93.4	O=C(Nc1cc(F)ccc1F)c1cc(Cl)ccc1O [compound 179]	–	–
25.5	78.9	COc1cc(Cl)nc(NC(=O)c2cc(Cl)ccc2O)n1 [compound 241]	–	–
38.3	96.8	COc1cc(NC(=O)c2cc(Br)ccc2O)cc(OC)c1 [compound 143]	–	–
–	–	CC(C)C(=O)c1ccc(O)c(C(=O)Nc2cc(C(F)(F)F)cc(C(F)(F)F)c2)c1 [compound 34, N-[3,5-Bis(trifluoromethyl)phenyl]-2-hydroxy-5-isobutyrylbenzamide]	98.7	90.7
–	89.7	COc1ccc(C)cc1NC(=O)c1cc(Cl)ccc1O [compound 178]	–	–
–	–	C[Si](C)(C)C#Cc1ccc(O)c(C(=O)Nc2cc(C(F)(F)F)cc(C(F)(F)F)c2)c1 [compound 20, N-[3,5-bis(trifluoromethyl)phenyl]-2-hydroxy-5-[(trimethylsilyl)ethynyl]benzamide]	94.9	91.1
96.7	97.4	CC(=O)Oc1ccc(Cl)cc1C(=O)Nc1cc(C(F)(F)F)ccc1Cl [compound 89]	–	–

Inhibitory rate against NF-κB activation (%) (Drug concentration at 1 μg/mL)	Inhibitory rate against NF-κB activation (%) (Drug concentration at 10 μg/mL)	SMILES	inhibition at 10 µg/mL (Drug concentration at 10 μg/mL) [%]	inhibition at 1 µg/mL (Drug concentration at 1 μg/mL) [%]
92.9	95.5	CC(=O)Oc1ccccc1C(=O)Nc1cc(Cl)cc(Cl)c1 [compound 121]	–	–
–	78.8	O=C(Nc1nc(-c2ccccc2)cs1)c1cc(Br)ccc1O [compound 208]	–	–
–	–	CC(C)(C)c1nc(NC(=O)c2cc(Br)ccc2O)sc1Br [compound 186, 5-Bromo-N-{5-bromo-4-[(1,1-dimethyl)ethyl]thiazol-2-yl}-2-hydroxybenzamide]	98.7	96.5
85.1	89.4	O=C(Nc1nc(C(F)(F)F)c(-c2ccccc2)s1)c1cc(Br)ccc1O [compound 213]	–	–
53.3	90.1	C#Cc1ccc(O)c(C(=O)Nc2cc(C(F)(F)F)cc(C(F)(F)F)c2)c1 [compound 21]	–	–
31.6	95.9	Cc1ccc(S(=O)(=O)c2ccc(Cl)c(NC(=O)c3cc(Cl)ccc3O)c2)cc1 [compound 169]	–	–
–	–	CC(C)(C)c1nc(NC(=O)c2cc(Br)ccc2O)sc1N1CCN(c2ccccc2)CC1 [compound 207, 5-Bromo-N-{4-[(1,1-dimethyl)ethyl]-5-(4-phenylpiperazin-1-yl)thiazol-2-yl}-2-hydroxybenzamide]	95.9	92.5
–	–	O=C(Nc1nnc(C(F)(F)F)s1)c1ccccc1O [compound 237, 2-Hydroxy-N-(5-trifluoromethyl-1,3,4-thiadiazol-2-yl)benzamide]	81.9	–
94.7	98.3	CON=C(C)c1ccc(O)c(C(=O)Nc2cc(C(F)(F)F)cc(C(F)(F)F)c2)c1 [compound 14]	–	–
–	85.7	O=C(Nc1cnc2ccccc2c1)c1cc(Cl)ccc1O [compound 242]	–	–
74.9	99.1	COC(=O)C(C#N)=Cc1ccc(O)c(C(=O)Nc2cc(C(F)(F)F)cc(C(F)(F)F)c2)c1 [compound 17, 3-({N-[3,5-Bis(trifluoromethyl)phenyl]carbamoyl}-4-hydroxyphenyl)-2-cyanoacrylic acid methyl ester]	–	–
–	–	CC(=O)c1ccc(O)c(C(=O)Nc2cc(C(F)(F)F)cc(C(F)(F)F)c2)c1 [compound 12, 5-Acetyl-N-[3,5-bis(trifluoromethyl)phenyl]-2-hydroxybenzamide]	99.2	86.3
91.0	95.6	O=C(Nc1cc([N+](=O)[O-])cc([N+](=O)[O-])c1)c1cc(Br)ccc1O [compound 133]	–	–
87.8	99.4	CCC(C)(C)c1ccc(O)c(NC(=O)c2cc(Cl)ccc2O)c1 [compound 177]	–	–
>99.9	–	O=C(Nc1cc(C(F)(F)F)cc(C(F)(F)F)c1)c1cc(Br)cc(-c2ccccc2)c1O [compound 259]	–	–
–	–	CC(=O)c1sc(NC(=O)c2cc(Br)ccc2O)nc1-c1ccccc1 [compound 214, 5-Bromo-N-(5-acetyl-4-phenylthiazol-2-yl)-2-hydroxybenzamide]	95.9	70.2

SMILES	Inhibitory rate against NF-κB activation (%) (Drug concentration at 1 μg/mL)	Inhibitory rate against NF-κB activation (%) (Drug concentration at 10 μg/mL)	inhibition at 10 µg/mL (Drug concentration at 10 μg/mL) [%]	inhibition at 1 µg/mL (Drug concentration at 1 μg/mL) [%]
O=C(Nc1cc(C(F)(F)F)cc(C(F)(F)F)c1)c1nc2ccccc2nc1O [compound 80]	46.3	73.0	–	–
O=C(Nc1cc(C(F)(F)F)cc(C(F)(F)F)c1)c1cccc(O)c1O [compound 57]	–	91.9	–	–
COc1cc(NC(=O)c2cc(Cl)ccc2O)cc(C(F)(F)F)c1 [compound 105]	94.6	97.5	–	–
O=C(Nc1cc(C(F)(F)F)ccc1Cl)c1cc(Cl)cnc1O [compound 119]	85.4	86.9	–	–
O=C(Nc1cc(C(F)(F)F)ccc1OCC(F)(F)F)c1cc(Cl)ccc1O [compound 113]	90.5	96.2	–	–
Cc1ccc(Oc2ccc(C(F)(F)F)cc2NC(=O)c2cc(Cl)ccc2O)cc1 [compound 117]	92.8	92.6	–	–
O=C(Nc1ccc(O)c(C(=O)Nc2cc(C(F)(F)F)cc(C(F)(F)F)c2)c1)c1ccccc1 [compound 45]	–	63.4	–	–
O=C(Nc1cc(C(F)(F)F)ccc1[N+](=O)[O-])c1cc(Cl)ccc1O [compound 91]	86.3	96.7	–	–
O=C(Nc1cc(C(F)(F)F)ccc1N1CCCCC1)c1cc(Cl)ccc1O [compound 116]	90.0	97.3	–	–
CN(C)c1ccc(O)c(C(=O)Nc2cc(C(F)(F)F)cc(C(F)(F)F)c2)c1 [compound 44]	–	67.5	–	–
COc1ccc(C(=O)Nc2cc(C(F)(F)F)cc(C(F)(F)F)c2)c(O)c1 [compound 65]	83.3	89.8	–	–
O=C(Nc1cc(C(F)(F)F)cc(C(F)(F)F)c1)c1cc(-n2cccc2)ccc1O [compound 27]	93.8	97.9	–	–
CCOC(=O)c1sc(NC(=O)c2cc(-n3cccc3)ccc2O)nc1-c1ccccc1 [compound 229]	74.0	90.1	–	–
O=C(Nc1cc(C(F)(F)F)cc(C(F)(F)F)c1)c1cc(NC(=S)Nc2ccccc2)ccc1O [compound 47]	51.8	97.2	–	–
CC(C)(C)c1ccc(C(C)(C)C)c(NC(=O)c2cc(Cl)ccc2O)c1 [compound 134]	89.1	96.3	–	–
O=C(Nc1cc(C(F)(F)F)cc(C(F)(F)F)c1)c1cc(C(F)(F)C(F)(F)F)ccc1O [compound 26]	93.3	95.4	–	–
